For orientation: IC50 means the concentration needed to halve the response being measured.

One data set relates to K562. Kind of data set: Cytotoxicity against human K562 cells assessed as reduction in cell viability incubated for 72 hrs by MTS assay. To be noted: K562, 72 h. In kind it is functional, cell-based. A general note: Tetrazolium assays rely on reduction of a dye to a coloured formazan, in cell work by metabolically active cells.
Another data set relates to U2OS. Kind of data set: Cytotoxicity against human U2OS cells assessed as reduction in cell viability incubated for 72 hrs by MTS assay. In kind it is functional, cell-based.
The nature of data set [1]: Cytotoxicity against human MRC5 cells assessed as reduction in cell viability incubated for 72 hrs by MTS assay. In kind it is toxicity, cell-based.
The nature of data set [2]: Cytotoxicity against human K562-Tax cells assessed as reduction in cell viability incubated for 72 hrs by MTS assay. In kind it is functional, cell-based.
A further data set deals with CEM-DNR. Kind of data set: Cytotoxicity against human CEM-DNR cells assessed as reduction in cell viability incubated for 72 hrs by MTS assay. In kind it is functional, cell-based.
In a further data set the test system is CCRF-CEM. Kind of data set: Cytotoxicity against human CCRF-CEM cells assessed as reduction in cell viability incubated for 72 hrs by MTS assay. In kind it is functional, cell-based.
Another data set has as its system HCT-116. Kind of data set: Cytotoxicity against human HCT-116 cells assessed as reduction in cell viability incubated for 72 hrs by MTS assay. The following applies: HCT-116, 72 h. In kind it is functional, cell-based.
A short description of data set [3]: Cytotoxicity against human HCT116-p53-null cells assessed as reduction in cell viability incubated for 72 hrs by MTS assay. In kind it is functional, cell-based.
The next data set has as its system A549. Kind of data set: Cytotoxicity against human A549 cells assessed as reduction in cell viability incubated for 72 hrs by MTS assay. In kind it is functional, cell-based. The following applies: A549, 72 h.
The nature of data set [4]: Cytotoxicity against human BJ cells assessed as reduction in cell viability incubated for 72 hrs by MTS assay. In kind it is toxicity, cell-based.

Turning to `CC1=CC[C@]2(C(=O)O)CC[C@]3(C)[C@H](CC[C@@H]4[C@@]5(C)CCC(=O)C(C)(C)[C@@H]5CC[C@]43C)[C@H]2[C@@H]1C`, the IC50 with K562 came out at 8.5 µM; with U2OS it was 24 µM; in [2] it was 28 µM; in the data set on CEM-DNR, 11 µM; with CCRF-CEM, 6.5 µM; in the data set with HCT-116 it was 32 µM. The IC50 stood at 35 µM in data set [3] and 24 µM in the data set on A549. Further, the IC50 at 72 h in data set [1] was 33 µM; in data set [4], 35 µM.

For the compound `Cc1oc(=O)oc1COC(=O)[C@]12CC[C@@H](C(C)C)[C@@H]1[C@H]1CC[C@@H]3[C@@]4(C)Cc5cccnc5C(C)(C)[C@@H]4CC[C@@]3(C)[C@]1(C)CC2`, the IC50 is 0.043 µM in the data set with K562; > 50 µM with U2OS; > 50 µM in data set [2]; 50 µM in the data set on CEM-DNR; 46 µM with CCRF-CEM; > 50 µM in the data set with HCT-116. Moreover, the IC50 (in data set [3]; in the data set with A549) was > 50 µM throughout. The half-inhibitory concentration (IC50) at 72 h in data set [1] and in [4] was > 50 µM in each case.

As to `C#CCOC(=O)[C@]12CC[C@@H](C(=C)C=O)[C@@H]1[C@H]1CC[C@@H]3[C@@]4(C)CC[C@H](O)C(C)(C)[C@@H]4CC[C@@]3(C)[C@]1(C)CC2`, the IC50 with K562 was 1.8 µM; in the data set with U2OS, 1.6 µM; in data set [2], 1.3 µM; with CEM-DNR, 1.4 µM; with CCRF-CEM, 0.88 µM; in the data set on HCT-116, 1.7 µM. Besides, the IC50 amounted to 1.5 µM in data set [3] and 1.3 µM in the data set with A549. In addition, the IC50 at 72 h was 1.7 µM in data set [1] and 7.1 µM in [4].

Consider `CC1(C)CC[C@]23CC[C@]4(C)[C@H](CC[C@@H]5[C@@]6(C)Cc7nccnc7C(C)(C)[C@@H]6CC[C@]54C)[C@H]2[C@H]1OC3`, for which the IC50 (with K562; in the data set on U2OS; in data set [2]; in the data set on CEM-DNR; in the data set on CCRF-CEM; with HCT-116) was > 50 µM in each case. For the same compound, the half-maximal inhibitory concentration (IC50) (in data set [3]; in the data set on A549) was > 50 µM in each case. Besides, the IC50 at 72 h in data set [1] and in [4] was > 50 µM each time.

`C=C(C)[C@@H]1CC[C@]2(C(=O)O)CC[C@]3(C)[C@H](CC[C@@H]4[C@@]5(C)CCC(=O)C(C)(C)[C@@H]5CC[C@]43C)[C@@H]12` [BETUNOLIC ACID]: the IC50 in data set [2] turned out to be 15 µM; with CEM-DNR, 11 µM; in data set [3], 49 µM. For the same compound, the IC50 at 72 h in data set [4] stood at 39 µM.

As to `CC1(C)CC[C@]2(C(=O)O)CC[C@]3(C)C(=CC[C@@H]4[C@@]5(C)CCC(=O)C(C)(C)[C@@H]5CC[C@]43C)[C@@H]2C1` [OLEANONIC ACID], the IC50 with K562 was > 50 µM; in [2] it was 21 µM; with CEM-DNR, 17 µM; with CCRF-CEM, 9.5 µM; in [3], > 50 µM. The IC50 at 72 h in data set [1] and in data set [4] was > 50 µM throughout.

On to `CC(C)[C@@H]1CC[C@]2(C(=O)O)CC[C@]3(C)[C@H](CC[C@@H]4[C@@]5(C)CCC(=O)C(C)(C)[C@@H]5CC[C@]43C)[C@@H]12` [DIHYDROBETULONIC ACID], for which the IC50 in the data set with U2OS turned out to be 27 µM; in [2], 11 µM; in the data set on CEM-DNR, 48 µM; in the data set with CCRF-CEM it was 6.3 µM; in data set [3] it was 36 µM. For the same compound, the IC50 at 72 h in data set [1] and in data set [4] was > 50 µM each time.
